Our source for the IC50 and EC50 values is patent publication US20240043427A1 (Gilead Sciences, Inc., priority 2020, published 2024).

The target in assay [1] is T1, CD73 (Homo sapiens (Human), UniProt P21589). Type of assay: biochemical. The settings on record: 1 mM NaH2PO4 in enzyme buffer, CD73 0.3 nM, AMP 15 uM.
In assay [2] the target is T1, CD73. Nature of the assay: MDA-MB-231 Cell Based CD73 Activity Assay (DMEM). The settings on record: MDA-MB-231-GFP cells, DMEM medium with 10% human plasma, 200 uM AMP.

T1 sequence (P21589 27-574): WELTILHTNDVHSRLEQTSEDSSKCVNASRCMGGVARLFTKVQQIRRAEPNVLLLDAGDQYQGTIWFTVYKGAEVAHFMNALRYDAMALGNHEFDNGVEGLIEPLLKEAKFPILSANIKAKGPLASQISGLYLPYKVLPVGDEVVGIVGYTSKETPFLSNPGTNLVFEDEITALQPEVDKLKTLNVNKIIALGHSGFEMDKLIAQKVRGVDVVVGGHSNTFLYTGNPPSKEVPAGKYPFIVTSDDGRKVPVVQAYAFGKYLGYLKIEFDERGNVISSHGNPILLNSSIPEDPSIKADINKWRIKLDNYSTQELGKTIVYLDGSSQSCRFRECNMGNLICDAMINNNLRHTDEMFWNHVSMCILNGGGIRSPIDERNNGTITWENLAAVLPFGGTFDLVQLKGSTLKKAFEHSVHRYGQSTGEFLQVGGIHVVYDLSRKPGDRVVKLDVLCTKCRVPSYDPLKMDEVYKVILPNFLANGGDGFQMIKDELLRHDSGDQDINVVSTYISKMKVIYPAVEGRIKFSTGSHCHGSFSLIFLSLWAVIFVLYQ

By IC50 is commonly meant the concentration needed to halve the response being measured. Higher therefore signals weaker potency. The term EC50 denotes the concentration needed to bring the measured effect to its halfway point. `O=c1[nH]cc(-c2cc([C@H]3C[C@@H]3c3cc(Cl)c4cnn(CC(F)(F)F)c4c3)c3nccn3n2)c(=O)[nH]1` [Example 460, 5-(8-((1S,2S)-2-(4-chloro-1-(2,2,2-trifluoroethyl)-1H-indazol-6-yl)cyclopropyl)imidazo[1,2-b]pyridazin-6-yl)pyrimidine-2,4(1H,3H)-dione] registered an IC50 against CD73 [1] of 0.46 nM. For the same compound, a half-maximal response on CD73 [2] (EC50) required 0.38 nM.
In the same order, the values of `N#Cc1ccc([C@H]2C[C@@H]2c2cc(-c3c[nH]c(=O)[nH]c3=O)nn3ccnc23)cc1` [Example 465, 4-((1S,2S)-2-(6-(2,4-dioxo-1,2,3,4-tetrahydropyrimidin-5-yl)imidazo[1,2-b]pyridazin-8-yl)cyclopropyl)benzonitrile] are 0.86 nM and 3.24 nM.
In the same order, the values of `N#Cc1ccc([C@H]2C[C@@H]2c2cc(-c3c[nH]c(=O)[nH]c3=O)nn3ccnc23)cc1F` [Example 467, 4-((1S,2S)-2-(6-(2,4-dioxo-1,2,3,4-tetrahydropyrimidin-5-yl)imidazo[1,2-b]pyridazin-8-yl)cyclopropyl)-2-fluorobenzonitrile] are 0.85 nM and 3.86 nM.
The matching figures for `O=c1[nH]cc(-c2cc([C@H]3C[C@@H]3c3ccc(F)cc3F)n3nccc3n2)c(=O)[nH]1` [Example 469, 5-(7-((1S,2S)-2-(2,4-difluorophenyl)cyclopropyl)pyrazolo[1,5-a]pyrimidin-5-yl)pyrimidine-2,4(1H,3H)-dione]: 1.73 nM and 15 nM.
In turn, `O=c1[nH]cc(-c2cc([C@H]3C[C@@H]3c3ccc4cnn(CC(F)(F)F)c4c3)c3ncc(Cl)n3n2)c(=O)[nH]1` [Example 470, 5-(3-chloro-8-((1S,2S)-2-(1-(2,2,2-trifluoroethyl)-1H-indazol-6-yl)cyclopropyl)imidazo[1,2-b]pyridazin-6-yl)pyrimidine-2,4(1H,3H)-dione] displayed a concentration for half-maximal inhibition (IC50) at CD73 [1] of 0.23 nM. This compound came in with an EC50 at CD73 [2] of 0.13 nM.
The matching figures for `O=c1[nH]cc(-c2cc(N3C[C@@H](F)[C@@H](F)C3)n3ncnc3n2)c(=O)[nH]1` [Example 472, 5-(7-((3R,4S)-3,4-difluoropyrrolidin-1-yl)-[1,2,4]triazolo[1,5-a]pyrimidin-5-yl)pyrimidine-2,4(1H,3H)-dione]: 15.6 nM and 58.6 nM.
The matching figures for `COC1CN(c2cc(-c3c[nH]c(=O)[nH]c3=O)nn3ccnc23)CC1(F)F` (stereo not drawn) [Example 473, 5-(8-(3,3-difluoro-4-methoxypyrrolidin-1-yl)imidazo[1,2-b]pyridazin-6-yl)pyrimidine-2,4(1H,3H)-dione]: 5.76 nM and 18.3 nM.
The matching figures for `COC1CN(c2cc(-c3c[nH]c(=O)[nH]c3=O)nn3c(F)cnc23)CC1(F)F` (stereo not drawn) [Example 474, 5-(8-(3,3-difluoro-4-methoxypyrrolidin-1-yl)-3-fluoroimidazo[1,2-b]pyridazin-6-yl)pyrimidine-2,4(1H,3H)-dione]: 7.47 nM and 26.7 nM.
The compound `CC(C)Cc1cn2nc(-c3c[nH]c(=O)[nH]c3=O)cc(N3CC(F)(F)C4(CC4)C3)c2n1` [Example 475, 5-(8-(7,7-difluoro-5-azaspiro[2.4]heptan-5-yl)-2-isobutylimidazo[1,2-b]pyridazin-6-yl)pyrimidine-2,4(1H,3H)-dione] had a half-inhibitory concentration (IC50) on CD73 [1] of 32.1 nM. Also, the EC50 at CD73 [2] came to 932 nM.
At CD73 [1], `O=c1[nH]cc(-c2cc(N3C[C@H]4CC[C@H]4C3)c3nccn3n2)c(=O)[nH]1` [Example 476, 5-(8-(cis-3-azabicyclo[3.2.0]heptan-3-yl)imidazo[1,2-b]pyridazin-6-yl)pyrimidine-2,4(1H,3H)-dione] displayed an IC50 of 38.8 nM. The same compound gave a concentration giving a half-maximal response (EC50) at CD73 [2] of 32.2 nM.
In the same order, the values of `COC[C@@H]1CCCN1c1cc(-c2c[nH]c(=O)[nH]c2=O)nn2ccnc12` [Example 477, (S)-5-(8-(2-(methoxymethyl)pyrrolidin-1-yl)imidazo[1,2-b]pyridazin-6-yl)pyrimidine-2,4(1H,3H)-dione] are above 250 nM and 952 nM.
As for `O=c1[nH]cc(-c2cc(N3CC4CCC4(F)C3)c3nccn3n2)c(=O)[nH]1` (stereo not drawn) [Example 478, 5-(8-(1-fluoro-3-azabicyclo[3.2.0]heptan-3-yl)imidazo[1,2-b]pyridazin-6-yl)pyrimidine-2,4(1H,3H)-dione], on CD73 [1], 32.1 nM corresponded to half-maximal inhibition (IC50). The compound also gave a concentration for a half-maximal effect (EC50) on CD73 [2] of 53.7 nM.
At CD73 [1], `CC1CN(c2cc(-c3c[nH]c(=O)[nH]c3=O)nn3ccnc23)CC1(F)F` (stereo not drawn) [Example 479, 5-(8-(3,3-difluoro-4-methylpyrrolidin-1-yl)imidazo[1,2-b]pyridazin-6-yl)pyrimidine-2,4(1H,3H)-dione] had an IC50 of 2.6 nM. Moreover, it took 9.06 nM to reach a half-maximal effect at CD73 [2] (EC50).
The matching figures for `O=C1CCN(c2cc(-c3c[nH]c(=O)[nH]c3=O)nn3ccnc23)N1` [Example 480, 5-(8-(3-oxopyrazolidin-1-yl)imidazo[1,2-b]pyridazin-6-yl)pyrimidine-2,4(1H,3H)-dione]: above 250 nM and 1920 nM.
The matching figures for `O=c1[nH]cc(-c2cc(N3CC(F)(F)C3)c3nccn3n2)c(=O)[nH]1` [Example 481, 5-(8-(3,3-difluoroazetidin-1-yl)imidazo[1,2-b]pyridazin-6-yl)pyrimidine-2,4(1H,3H)-dione]: 26.1 nM and 44.4 nM.
In the same order, the values of `O=C1CN(c2cc(-c3c[nH]c(=O)[nH]c3=O)nn3ccnc23)CCN1Cc1ccc(F)cc1` [Example 482, 5-(8-(4-(4-fluorobenzyl)-3-oxopiperazin-1-yl)imidazo[1,2-b]pyridazin-6-yl)pyrimidine-2,4(1H,3H)-dione] are above 250 nM and 1230 nM.
On CD73 [1], `O=c1[nH]cc(-c2cc(N3CCCCCC3)c3nccn3n2)c(=O)[nH]1` [Example 483, 5-(8-(azepan-1-yl)imidazo[1,2-b]pyridazin-6-yl)pyrimidine-2,4(1H,3H)-dione] came in with a 50% inhibitory concentration (IC50) above 250 nM. This compound had a 50% effective concentration (EC50) on CD73 [2] of 566 nM.
In the same order, the values of `CC1CCN(c2cc(-c3c[nH]c(=O)[nH]c3=O)nn3ccnc23)CCC1(F)F` (stereo not drawn) [Example 484, 5-(8-(4,4-difluoro-5-methylazepan-1-yl)imidazo[1,2-b]pyridazin-6-yl)pyrimidine-2,4(1H,3H)-dione] are 68.7 nM and 180 nM.
The matching figures for `CC(C)(O)CCNc1cc(-c2c[nH]c(=O)[nH]c2=O)nn2ccnc12` [Example 485, 5-(8-((3-hydroxy-3-methylbutyl)amino)imidazo[1,2-b]pyridazin-6-yl)pyrimidine-2,4(1H,3H)-dione]: above 250 nM and 700 nM.
In the same order, the values of `O=c1[nH]cc(-c2cc(NCCCc3ccccc3)c3nccn3n2)c(=O)[nH]1` [Example 486, 5-(8-((3-phenylpropyl)amino)imidazo[1,2-b]pyridazin-6-yl)pyrimidine-2,4(1H,3H)-dione] are above 250 nM and 1010 nM.
Regarding `O=c1[nH]cc(-c2cc(NCCc3ccccc3)c3nccn3n2)c(=O)[nH]1` [Example 487, 5-(8-(phenethylamino)imidazo[1,2-b]pyridazin-6-yl)pyrimidine-2,4(1H,3H)-dione], on CD73 [1], the IC50 is 27.9 nM. Moreover, the EC50 on CD73 [2] was 81 nM.
At CD73 [1], `CC(C)(C)OC(=O)N1CC2(C1)CN(c1cc(-c3c[nH]c(=O)[nH]c3=O)nn3ccnc13)CC2(F)F` [Example 488, tert-butyl 6-(6-(2,4-dioxo-1,2,3,4-tetrahydropyrimidin-5-yl)imidazo[1,2-b]pyridazin-8-yl)-8,8-difluoro-2,6-diazaspiro[3.4]octane-2-carboxylate] came in with an IC50 of 16.9 nM. The compound further gave an EC50 at CD73 [2] of 13 nM.
In the same order, the values of `O=c1[nH]cc(-c2cc(NCCc3cccc(C(F)(F)F)c3)c3nccn3n2)c(=O)[nH]1` [Example 489, 5-(8-((3-(trifluoromethyl)phenethyl)amino)imidazo[1,2-b]pyridazin-6-yl)pyrimidine-2,4(1H,3H)-dione] are above 250 nM and 1680 nM.
The matching figures for `O=c1[nH]cc(-c2cc(NCCc3cccc(Cl)c3)c3nccn3n2)c(=O)[nH]1` [Example 490, 5-(8-((3-chlorophenethyl)amino)imidazo[1,2-b]pyridazin-6-yl)pyrimidine-2,4(1H,3H)-dione]: 95 nM and 463 nM.
On CD73 [1], `O=c1[nH]cc(-c2cc(NCCc3ccccc3Cl)c3nccn3n2)c(=O)[nH]1` [Example 491, 5-(8-((2-chlorophenethyl)amino)imidazo[1,2-b]pyridazin-6-yl)pyrimidine-2,4(1H,3H)-dione] displayed a 50% inhibitory concentration (IC50) above 250 nM. The same compound had an EC50 at CD73 [2] of 1680 nM.
In the same order, the values of `O=c1[nH]cc(-c2cc(NCCc3cccc(F)c3)c3nccn3n2)c(=O)[nH]1` [Example 492, 5-(8-((3-fluorophenethyl)amino)imidazo[1,2-b]pyridazin-6-yl)pyrimidine-2,4(1H,3H)-dione] are 25.6 nM and 58.4 nM.
The matching figures for `O=c1[nH]cc(-c2cc(NCCc3ccccc3F)c3nccn3n2)c(=O)[nH]1` [Example 493, 5-(8-((2-fluorophenethyl)amino)imidazo[1,2-b]pyridazin-6-yl)pyrimidine-2,4(1H,3H)-dione]: 194 nM and 837 nM.
In the same order, the values of `O=c1[nH]cc(-c2cc(NC[C@@H](F)c3ccccc3)c3nccn3n2)c(=O)[nH]1` [Example 494, (S)-5-(8-((2-fluoro-2-phenylethyl)amino)imidazo[1,2-b]pyridazin-6-yl)pyrimidine-2,4(1H,3H)-dione] are 102 nM and 291 nM.
At CD73 [1], `O=c1[nH]cc(-c2cc(NCCc3c[nH]c4ccc(Cl)cc34)c3nccn3n2)c(=O)[nH]1` [Example 495, 5-(8-((2-(5-chloro-1H-indol-3-yl)ethyl)amino)imidazo[1,2-b]pyridazin-6-yl)pyrimidine-2,4(1H,3H)-dione] displayed an IC50 above 250 nM. The response on CD73 [2] was half-maximal at 748 nM (EC50).
The compound `O=c1[nH]cc(-c2cc(NCCc3ccc(F)cc3)c3nccn3n2)c(=O)[nH]1` [Example 496, 5-(8-((4-fluorophenethyl)amino)imidazo[1,2-b]pyridazin-6-yl)pyrimidine-2,4(1H,3H)-dione] yielded an IC50 against CD73 [1] of 64 nM. The compound also gave a half-maximal effective concentration (EC50) at CD73 [2] of 154 nM.
